Measured values as given in patent US7629348B2, “Heterocyclic amide and imine derivatives, processes for their preparation, compositions comprising them and their use as pesticides” (Merial Limited, priority 2001, dated 2009).

Legend:
[1] = test system: black bean aphids (Aphis fabae); experiment: Dip test: field bean plants (Vicia faba) and aphids dipped into solution of preparation, aphid mortality; conditions: plants and aphids dipped 5 seconds; after 3 and 6 days of storage; concentration 500 ppm or less
Method: Germinated field bean seeds (Vicia faba) with seed roots were transferred into brown glass bottles filled with tap water and then populated with about 100 black bean aphids (Aphis fabae). Plants and aphids were then dipped into an aqueous solution of the formulated preparation to be examined for 5 seconds. After they had drained, plants and animals were stored in a climatized chamber (16 hours of light/day, 25° C., 40-60% relative atmospheric humidity). After 3 and 6 days of storage, the mortality of the preparation on the aphids was determined.

[2] = test system: black bean aphids (Aphis fabae); experiment: Root-systemic test: solution pipetted into bottle with field bean (Vicia faba), aphid mortality; conditions: 4 ml aqueous solution pipetted into bottle; after 3 and 6 days of storage; concentration 500 ppm or less
Method: Germinated field bean seeds (Vicia faba) with seed roots were transferred into brown glass bottles filled with tap water. Four milliliters of an aqueous solution of the formulated preparation to be examined were pipetted into the brown glass bottle. The field bean was then heavily populated with about 100 black bean aphids (Aphis fabae). Plants and aphids were then stored in a climatized chamber (16 hours of light/day, 25° C., 40-60% relative atmospheric humidity). After 3 and 6 days of storage, the root-systemic effect of the preparation as aphid mortality was determined.

| SMILES | mortality of the preparation on the aphids [1] | root-systemic effect of the preparation as aphid mortality [2] |
| --- | --- | --- |
| O=C(NSC1CCCC1)c1cnccc1C(F)(F)F [Example 1] | active | active |
| C=CCSNC(=O)c1cnccc1C(F)(F)F [Example 44] | active | active |
| CCCCCCCSNC(=O)c1cnccc1C(F)(F)F [Example 50] | active | active |
| CC(C)CCSNC(=O)c1cnccc1C(F)(F)F [Example 45] | active | active |
| O=C(NSC1CC1)c1cnccc1C(F)(F)F [Example 98] | active | active |
| CC(C)SN=C(OCCC(C)[N+](=O)[O-])c1cnccc1C(F)(F)F (stereo not shown) [Example 124] | active | active |
| CCCCCCSNC(=O)c1cnccc1C(F)(F)F [Example 49] | active | active |
| CC(C)SNC(=O)c1cnccc1C(F)(F)F [Example 29] | active | active |
| O=C(NSc1ccc(F)cc1)c1cnccc1C(F)(F)F [Example 23] | active | active |
| O=C(NSc1ccc(Cl)cc1)c1cnccc1C(F)(F)F [Example 18] | active | active |
| Cc1ccc(SN(C(=O)c2cnccc2C(F)(F)F)C(C)C)cc1 [Example 6] | active | active |
| O=C(NSCc1cccc(C(F)(F)F)c1)c1cnccc1C(F)(F)F [Example 85] | active | active |
| O=C(NSCc1ccc(C(F)(F)F)cc1)c1cnccc1C(F)(F)F [Example 84] | active | active |
| CCN(Sc1ccccc1)C(=O)c1cnccc1C(F)(F)F [Example 3] | active | active |
| CCC(C)CSNC(=O)c1cnccc1C(F)(F)F (stereo not shown) [Example 38] | active | active |
| O=C(NSC1CCCCC1)c1cnccc1C(F)(F)F [Example A, N-cyclohexylthio-(4-trifluoromethyl)nicotinamide] | active | active |
| O=C(NSc1ccccc1)c1cnccc1C(F)(F)F [Example 2] | active | active |
| CCC(C)SNC(=O)c1cnccc1C(F)(F)F (stereo not shown) [Example B, N-(2-butylthio)-(4-trifluoromethyl)nicotinamide] | active | active |
| CC(C)N(Sc1ccccc1)C(=O)c1cnccc1C(F)(F)F [Example 4] | active | active |
| CCCCCSNC(=O)c1cnccc1C(F)(F)F [Example 48] | active | active |
